The source of these data is US6340758B1, “Conformationally semi-constrained quinoxaline 2,3-diones as neuroprotective agents” (Warner-Lambert Company, priority 1997, dated 2002).

For orientation: melting point means the temperature, or range, at which the solid turns liquid.

For `Cc1c([N+](=O)[O-])cc2[nH]c(=O)c(=O)[nH]c2c1-c1nnc(N)o1` [Example 1, 5-(5-Amino-[1,3,4]oxadiazol-2-yl)-6-methyl-7-nitro-1,4-dihydro-quinoxaline-2,3-dione], the melting point lay within 205 to 206 °C.
